Assay results reported in PubChem BioAssay (NCI).
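Five concentrations, 48 hours, 96-well plates. The concentration for full growth arrest is given as TGI.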

Key:
Test in all cases: DTP human tumour cell line panel, 48 h
[1] = test system: UO-31 renal
[2] = test system: UACC-62 melanoma
[3] = test system: SNB-19 CNS
[4] = test system: NCI-H460 lung
[5] = test system: SR leukemia
[6] = test system: PC-3 prostate
[7] = test system: K-562 leukemia
[8] = test system: UACC-257 melanoma
[9] = test system: SF-268 CNS
[10] = test system: NCI-H226 lung
[11] = test system: SF-295 CNS
[12] = test system: HS 578T breast
[13] = test system: MALME-3M melanoma
[14] = test system: CCRF-CEM leukemia
[15] = test system: SNB-75 CNS
[16] = test system: A549 NSCLC
[17] = test system: MDA-MB-231 breast
[18] = test system: CAKI-1 renal
[19] = test system: HCC-2998 colon
[20] = test system: HCT-15 colon

## O=C(N/N=C/c1c(-c2ccccc2)no[n+]1[O-])N1CCOCC1
[1]
  TGI: > 100 µM
[2]
  TGI: > 100 µM
[3]
  TGI: > 100 µM
[4]
  TGI: > 100 µM
[5]
  TGI: 45.1 µM
[6]
  TGI: > 100 µM
[7]
  TGI: > 100 µM
[8]
  TGI: > 100 µM
[9]
  TGI: > 100 µM
[10]
  TGI: > 100 µM
[11]
  TGI: > 100 µM
[12]
  TGI: > 100 µM
[13]
  TGI: > 100 µM
[14]
  TGI: > 100 µM
[15]
  TGI: > 100 µM
[16]
  TGI: > 100 µM
[17]
  TGI: > 100 µM
[18]
  TGI: > 100 µM
[19]
  TGI: > 100 µM
[20]
  TGI: > 100 µM

## CC1=CC[C@H](C(C)C)C(C(O)[C@@H](C)O[Si](c2ccccc2)(c2ccccc2)C(C)(C)C)C1=O (some centres undefined)
[1]
  TGI: 31.7 µM
[2]
  TGI: 33.6 µM
[3]
  TGI: 33.5 µM
[4]
  TGI: 37.2 µM
[5]
  TGI: > 100 µM
[6]
  TGI: 33.6 µM
[7]
  TGI: > 100 µM
[8]
  TGI: 31.5 µM
[9]
  TGI: 54.8 µM
[10]
  TGI: 44 µM
[11]
  TGI: 33.1 µM
[12]
  TGI: 67 µM
[13]
  TGI: 52.8 µM
[14]
  TGI: 63.8 µM
[15]
  TGI: 54.4 µM
[16]
  TGI: 38.4 µM
[17]
  TGI: 32.4 µM
[18]
  TGI: 36.2 µM
[19]
  TGI: 29 µM
[20]
  TGI: 36.4 µM

## CC(C)(C)OCC1NC(=O)[C@@H]2Cc3c([nH]c4ccccc34)C(c3ccccc3)N2C1=O (some centres undefined)
[1]
  TGI: > 50 µM
[2]
  TGI: > 50 µM
[3]
  TGI: > 50 µM
[4]
  TGI: > 50 µM
[5]
  TGI: > 33 µM
[6]
  TGI: > 50 µM
[7]
  TGI: > 50 µM
[8]
  TGI: > 50 µM
[9]
  TGI: > 50 µM
[10]
  TGI: > 50 µM
[11]
  TGI: > 50 µM
[12]
  TGI: > 50 µM
[13]
  TGI: > 50 µM
[14]
  TGI: > 50 µM
[15]
  TGI: > 50 µM
[16]
  TGI: > 50 µM
[17]
  TGI: > 50 µM
[18]
  TGI: > 50 µM
[19]
  TGI: > 50 µM
[20]
  TGI: > 50 µM

## O=C1c2ccccc2C(=O)N1CC1S(=O)(=O)OCCOS1(=O)=O
[1]
  TGI: > 100 µM
[2]
  TGI: > 100 µM
[3]
  TGI: > 100 µM
[4]
  TGI: > 100 µM
[5]
  TGI: > 100 µM
[6]
  TGI: > 100 µM
[7]
  TGI: > 100 µM
[8]
  TGI: > 100 µM
[9]
  TGI: > 100 µM
[10]
  TGI: > 100 µM
[11]
  TGI: > 100 µM
[12]
  TGI: > 100 µM
[13]
  TGI: > 100 µM
[14]
  TGI: > 100 µM
[15]
  TGI: > 100 µM
[16]
  TGI: > 100 µM
[17]
  TGI: > 100 µM
[18]
  TGI: > 100 µM
[19]
  TGI: > 100 µM
[20]
  TGI: > 100 µM

## CCCC[C@H]1[C@@H](OCOc2ccccc2)COC(=O)N1[C@H](C)c1ccccc1
[1]
  TGI: > 45.1 µM
[2]
  TGI: 30.2 µM
[3]
  TGI: > 55 µM
[4]
  TGI: 32.1 µM
[5]
  TGI: > 80.9 µM
[6]
  TGI: 23.4 µM
[7]
  TGI: > 100 µM
[8]
  TGI: 29.5 µM
[9]
  TGI: 38.7 µM
[10]
  TGI: > 100 µM
[11]
  TGI: 50.6 µM
[12]
  TGI: 52.8 µM
[13]
  TGI: 33.5 µM
[14]
  TGI: 68.8 µM
[15]
  TGI: 26.9 µM
[16]
  TGI: 28.4 µM
[17]
  TGI: 37.3 µM
[18]
  TGI: 30.5 µM
[19]
  TGI: 35.8 µM
[20]
  TGI: 44.6 µM

## CCO/C=N\c1c(C#N)c(-c2ccc(Cl)cc2)cn1-c1ccc(C)cc1
[1]
  TGI: > 100 µM
[2]
  TGI: > 100 µM
[3]
  TGI: > 100 µM
[4]
  TGI: > 100 µM
[5]
  TGI: > 100 µM
[6]
  TGI: > 100 µM
[7]
  TGI: > 100 µM
[8]
  TGI: > 100 µM
[9]
  TGI: > 100 µM
[10]
  TGI: > 100 µM
[11]
  TGI: > 100 µM
[12]
  TGI: > 100 µM
[13]
  TGI: > 100 µM
[14]
  TGI: > 100 µM
[15]
  TGI: > 100 µM
[16]
  TGI: > 100 µM
[17]
  TGI: > 100 µM
[18]
  TGI: > 100 µM
[19]
  TGI: > 100 µM
[20]
  TGI: > 100 µM

## O=C(c1c(F)c(F)c(F)c(F)c1F)N1CCN(C(=O)c2c(F)c(F)c(F)c(F)c2F)C1=S
[1]
  TGI: 10 µM
[2]
  TGI: 9.33 µM
[3]
  TGI: 30.1 µM
[4]
  TGI: 25.6 µM
[5]
  TGI: > 100 µM
[6]
  TGI: 21 µM
[7]
  TGI: > 100 µM
[8]
  TGI: 22 µM
[9]
  TGI: 32.6 µM
[10]
  TGI: 30.8 µM
[11]
  TGI: 28.5 µM
[12]
  TGI: 18.9 µM
[13]
  TGI: 15.8 µM
[14]
  TGI: > 100 µM
[15]
  TGI: 23 µM
[16]
  TGI: 29.5 µM
[17]
  TGI: 14.4 µM
[18]
  TGI: 6.89 µM
[19]
  TGI: 22.7 µM
[20]
  TGI: 6.15 µM

## Nc1ccc2c(=O)cc(-c3cccs3)[nH]c2n1
[1]
  TGI: 26.6 µM
[2]
  TGI: > 100 µM
[3]
  TGI: > 100 µM
[4]
  TGI: > 100 µM
[5]
  TGI: > 34 µM
[6]
  TGI: > 28.3 µM
[7]
  TGI: > 100 µM
[8]
  TGI: > 100 µM
[9]
  TGI: > 100 µM
[10]
  TGI: 8.62 µM
[11]
  TGI: > 53.4 µM
[12]
  TGI: > 24.9 µM
[13]
  TGI: > 100 µM
[14]
  TGI: > 44.9 µM
[15]
  TGI: > 28.5 µM
[16]
  TGI: > 37.5 µM
[17]
  TGI: > 100 µM
[18]
  TGI: > 100 µM
[19]
  TGI: 27.5 µM
[20]
  TGI: > 60.4 µM

## O=S(CC1(O)CCCCC1)c1ccccc1 (centres undefined)
[1]
  TGI: > 100 µM
[2]
  TGI: > 100 µM
[3]
  TGI: > 100 µM
[4]
  TGI: > 100 µM
[5]
  TGI: > 100 µM
[6]
  TGI: > 100 µM
[7]
  TGI: > 100 µM
[8]
  TGI: > 100 µM
[9]
  TGI: > 100 µM
[10]
  TGI: > 100 µM
[11]
  TGI: > 100 µM
[12]
  TGI: > 100 µM
[13]
  TGI: > 100 µM
[14]
  TGI: > 100 µM
[15]
  TGI: > 100 µM
[16]
  TGI: > 100 µM
[17]
  TGI: > 100 µM
[18]
  TGI: > 100 µM
[19]
  TGI: > 100 µM
[20]
  TGI: > 100 µM

## CCCCCCCCCCCCCCCCCCN(C)C(COC)COP(=O)([O-])OCC[N+](C)(C)C (centres undefined)
[1]
  TGI: 31.4 µM
[2]
  TGI: 19.2 µM
[3]
  TGI: 14.1 µM
[4]
  TGI: 4.38 µM
[5]
  TGI: 22.9 µM
[6]
  TGI: 3.32 µM
[7]
  TGI: 31.3 µM
[8]
  TGI: 29.5 µM
[9]
  TGI: 12.5 µM
[10]
  TGI: 12.1 µM
[11]
  TGI: 10.3 µM
[12]
  TGI: 22.5 µM
[13]
  TGI: 29.5 µM
[14]
  TGI: 7.41 µM
[15]
  TGI: 8.3 µM
[16]
  TGI: 21.1 µM
[17]
  TGI: 19.6 µM
[18]
  TGI: 15.7 µM
[19]
  TGI: 3.46 µM

## O=[N+]([O-])c1ccc(N=Nc2c(O)ccc3ccccc23)c([N+](=O)[O-])c1
[1]
  TGI: > 100 µM
[2]
  TGI: > 100 µM
[3]
  TGI: > 100 µM
[4]
  TGI: > 100 µM
[5]
  TGI: > 100 µM
[6]
  TGI: > 100 µM
[7]
  TGI: > 71.4 µM
[8]
  TGI: > 100 µM
[9]
  TGI: > 100 µM
[10]
  TGI: > 100 µM
[11]
  TGI: > 100 µM
[12]
  TGI: > 100 µM
[13]
  TGI: > 100 µM
[14]
  TGI: > 64.6 µM
[15]
  TGI: > 100 µM
[16]
  TGI: > 100 µM
[17]
  TGI: > 100 µM
[18]
  TGI: > 100 µM
[19]
  TGI: > 100 µM
[20]
  TGI: > 100 µM
